Laboratory results: article PMC12598851, “Exploiting Avidity Effects for the Discovery of Low Affinity Protein-Binding Fragments” (Journal of Medicinal Chemistry, 2025)
Non-standard residues stand in square brackets, D forms with d. Residues, ends and D or L forms follow the SMILES beside them.

What was measured:
[1] = tested on: Rpn13; settings: peptide derived from Rpn2; cited from earlier work
[2] = target: T1, Rpn2-binding surface of Rpn13 (GST-Rpn13 PRU) (Homo sapiens, UniProt Q16186); assay: Competition assay with Rpn2 peptide for GST-Rpn13 PRU fusion protein; settings: protein preincubated with Rpn2 peptide 100 μM
T1 construct: the human Rpn13 PRU (pleckstrin-like receptor for ubiquitin) domain is linked to the C-terminus of GST; His6 (C); made in house; host or cells: E. coli BL21 (DE3) codon plus RP
T1 sequence (Q16186 18-131 limits assumed): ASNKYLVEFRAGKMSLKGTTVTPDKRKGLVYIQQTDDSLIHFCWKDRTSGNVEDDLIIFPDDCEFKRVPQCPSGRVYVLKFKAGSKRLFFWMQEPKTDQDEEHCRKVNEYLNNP
Protocol: As mentioned above, the Rpn13 PRU domain binds to the proteasome via association with a C-terminal peptide tail from Rpn2. […] The amount of protein retained on the resin was then evaluated using the same protocol described above.
This assay was conducted following the exact same procedure described above using two samples: GST-Rpn13 PRU (100 nM) alone, and GST-Rpn13 PRU (100 nM) that had been pretreated with Rpn2 peptide (100 μM) for 1 h at 4 °C. Each sample was added to separate wells of a microtiter plate.

CC[C@H](C)[C@H](NC(=O)[C@H](Cc1ccc(O)cc1)NC(=O)[C@@H](CCC(=O)O)NC(=O)[C@H](Cc1ccccc1)NC(=O)[C@@H]1CCCN1C(=O)[C@H](CCC(=O)O)NC(=O)[C@@H]1CCCN1C(=O)[C@@H]1CCCN1C(=O)[C@H](CCC(=O)O)NC(=O)[C@@H]1CCCN1C(=O)[C@@H](CCC(=O)O)NC(=O)[C@H](CCC(N)=O)NC(=O)[C@@H]1CCCN1)C(=O)N[C@@H](CC(=O)O)C(N)=O [Rpn2 peptide, reference compound] (H-PQ[dE]PEPPEPF[dE]YID-NH2)
affinity for Rpn13 [1]: nanomolar affinity
effect of soluble Rpn2 peptide competitor on binding of GST-Rpn13 PRU [2]: strongly suppressed binding
